Reference: patent EP0536419B1, “TRICYCLIC TRIAZOLE DERIVATIVES, PRODUCTION AND USE THEREOF” (TORAY INDUSTRIES, INC., priority 1991, dated 1992)
Where a name gives a salt, the structure may show the parent alone.

Columns and labels:
rabbit platelets = rabbit platelets (Oryctolagus cuniculus, UniProt G1TEI7); test: in vitro platelet agglutination inhibition test (PAF-induced); assay type: cell-based; details: rabbit platelet-rich plasma, PAF final concentration 10 ng/ml, 37°C; read-out: PAF-Induced Platelet Aggregation IC50 (converted)
rabbit platelets, sequence (G1TEI7 1-342): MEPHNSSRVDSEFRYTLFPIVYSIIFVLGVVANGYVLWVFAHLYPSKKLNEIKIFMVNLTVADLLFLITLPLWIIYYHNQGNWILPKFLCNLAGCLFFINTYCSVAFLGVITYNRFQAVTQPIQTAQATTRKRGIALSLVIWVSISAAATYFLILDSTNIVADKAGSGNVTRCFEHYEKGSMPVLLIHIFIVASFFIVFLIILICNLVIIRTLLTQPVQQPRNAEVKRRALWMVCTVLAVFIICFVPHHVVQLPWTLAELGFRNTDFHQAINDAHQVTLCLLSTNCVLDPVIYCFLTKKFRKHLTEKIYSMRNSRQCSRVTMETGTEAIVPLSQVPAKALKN
Protocol: To determine the PAF-antagonizing property of the compounds, the PAF-induced agglutination of rabbit platelets in vitro is utilized. To obtain platelet-rich plasma (PRP), venous blood is taken from rabbit auricular vein into a plastic centrifugal tube containing 1.0% sodium citrate solution. The ratio of sodium citrate solution to blood is 1:10. The obtained citrate-containing blood is centrifuged at 70 x g (625 rpm) at room temperature for 20 minutes and the PRP in the upper layer is transferred to another plastic tube. The remaining lower layer is further centrifuged at 1500 x g (2800 rpm) for 10 minutes and the platelet poor plasma (PPP) in the upper layer is recovered. The platelet agglutination is measured by using aggregometer commercially available from Niko Bioscience, Inc. An aliquote of the PRP is poured into a cubette for measurement. Immediately thereafter, aspirin, creatinin phosphate and creatinin phosphokinase are added to final concentrations of 0.1 mM, 7 mM and 45 U/ml, respectively. Then a solution of a test compound is added and the resulting mixture is stirred at 37°C for 2 minutes. To the resultant, PAF (final concentration: 10 ng/ml) is added to induce platelet aggregation. The platelet aggregation rate is calculated from the relative maximum value in each aggregation curve taking the transmittance of PPP as the maximum aggregation (100% aggregation). Using the aggregation rate when physiological saline was added as a control, the inhibition rate which was the ratio of the aggregation rate when the test compound was added to the control was calculated and the IC50 values were determined by interpolation.

PAF receptor = target: T1, PAF receptor (Oryctolagus cuniculus, UniProt G1TEI7); test: Binding test using [3H]-PAF (PAF receptor binding test); parameters: species or system rabbit; details: rabbit platelet membrane fraction, [3H]-PAF 0.4 nM, 25°C, 60 minutes; read-out: Receptor Binding Inhibition IC50 (converted)
T1 construct: Cell membrane fraction of rabbit platelets was prepared; from tissue; host or cells: rabbit platelets (cell membrane fraction)
T1 sequence (G1TEI7 1-342): as above
Protocol: Binding Test Using [^3H]-PAF (PAF receptor binding test)
Cell membrane fraction of rabbit platelets was prepared in accordance with the method by Hwang et al (Biochemistry; 22; 4756, (1983)). In 10 mM Tris buffer containing 0.25% bovine serum albumin, 50 mg of this membrane fraction was suspended and tritium-labelled PAF [^3H]-PAF; 0.4 nM) and a test compound were added thereto. After incubating the resulting mixture at 25°C for 60 minutes, the mixture was subjected to filtration through a filter paper made of glass fibers. The filter paper was washed with cold Tris buffer three times and then transferred to a vial. A scintillator was added thereto and the dose of radioactivity was measured with a liquid scintillation counter. The inhibition rate (binding ability) of the test compound was calculated according to the following equation and IC50 values were determined by interpolation. Inhibition Rate (%) = {1 - [((A - B))/((C - B))]} x 100 [formula] (wherein A represents amount bound in the presence of the compound, B represents amount bound by non-specific binding which is the dose of [^3H]-PAF bound radioactivity in the presence of 1 µM of PAF, and C represents total amount bound which is the dose of [^3H]-PAF bound radioactivity.
As a control agent, WEB2086 (Japanese Laid-open Patent Application (Kokai) No. 65-176591) disclosed as a PAF-antagonist was used.

| Compound | IC50 (rabbit platelets) [nM] | IC50 (PAF receptor) [nM] |
| --- | --- | --- |
| Cc1nnc2n1-c1ccccc1N(CCCN1CCC(=C3c4ccccc4CCc4ccccc43)CC1)C2 [Compound 87, 4,5-dihydro-1-methyl-5-[3-[4-(10,11-dihydro-5H-dibenzo[a,d]cyclohepten-5-ylidene)piperidin-1-yl]propyl][1,2,4]triazolo[4,3-a] quinoxaline] | 6180 | 199 |
| Cc1nnc2n1-c1ccccc1N(CCCN1CCC(=C3c4ccccc4C=Cc4ccccc43)CC1)C2 [Compound 78, 4,5-dihydro-1-methyl-5-[3-[4-(5H-dibenzo[a,d]cyclohepten-5-ylidene)piperidin-1-yl]propyl][1,2,4]triazolo[4,3-a] quinoxaline] | 4800 | 118 |
| Cc1nnc2n1-c1ccccc1N(CCCN1CCC(n3c(=O)[nH]c4ccccc43)CC1)C2 [Compound 81, 4,5-dihydro-1-methyl-5-[3-[4-(2-keto-1-benzimidazolynyl)piperidin-1-yl]propyl][1,2,4]triazolo[4,3-a] quinoxaline] | 1530 | 3380 |
| Cc1nnc2n1-c1ccccc1N(CCCN1CCC(=C(c3ccccc3)c3ccccc3)C1)C2 [Compound 85, 4,5-dihydro-1-methyl-5-[3-[3-(diphenylmethylene)pyrrolidin-1-yl]propyl][1,2,4]triazolo[4,3-a] quinoxaline] | 3030 | 238 |
| Cc1nnc2n1-c1ccccc1N(CCCN1CCC(C(O)(c3ccc(F)cc3)c3ccc(F)cc3)CC1)C2C (centres unmarked) [Compound 90, 4,5-dihydro-1,4-dimethyl-5-[3-[4-[hydroxybis(4-fluorophenyl)methyl]piperidin-1-yl]propyl][1,2,4]triazolo[4,3-a] quinoxaline] | 1030 | 1820 |
| COc1ccc(C(O)(c2ccccc2)C2CCN(CCCN3Cc4nnc(C)n4-c4ccccc43)CC2)cc1OC (centres unmarked) [Compound 130, 4,5-dihydro-1-methyl-5-[3-[4-[hydroxy(3,4-dimethoxyphenyl)phenylmethyl]piperidin-1-yl]propyl] [1,2,4]triazolo[4,3-a]quinoxaline] | 578 | 126 |
| Cc1cccc(C(O)(c2ccccc2)C2CCN(CCCN3Cc4nnc(C)n4-c4ccccc43)CC2)c1 (centres unmarked) [Compound 132, 4,5-dihydro-1-methyl-5-[3-[4-[hydroxyphenyl(3-tolyl)methyl]piperidin-1-yl]propyl] [1,2,4]triazolo[4,3-a]quinoxaline] | 70.9 | 51.2 |
| COc1ccccc1N1CCN(CCCN2Cc3nnc(C)n3-c3ccccc32)CC1 [Compound 86, 4,5-dihydro-1-methyl-5-[3-[4-(2-methoxyphenyl)piperazin-1-yl]propyl][1,2,4]triazolo[4,3-a] quinoxaline] | 5260 | 7170 |

The remaining lines, values ahead:

| IC50 (rabbit platelets) [nM] | IC50 (PAF receptor) [nM] | Compound |
| --- | --- | --- |
| 124 | 353 | Cc1nnc2n(CCCN3CCC(C(O)(c4ccccc4)c4ccccc4)CC3)c3ccccc3n12 [Compound 198, 3-methyl-9-[3-[4-(hydroxydiphenylmethyl)piperidin-1-yl]propyl]-9H-[1,2,4]triazolo[4,3-a]benzimidazole fumaric acid salt] |
| 277 | 294 | Cc1nnc2n(CCCN3CCC(=C(c4ccccc4)c4ccccc4)CC3)c3ccccc3n12 [Compound 201, 3-methyl-9-[3-[4-(diphenylmethylene)piperidin-1-yl]propyl]-9H-[1,2,4]triazolo[4,3-a]benzimidazole fumaric acid salt] |
| 1320 | 1170 | COc1ccc(C(O)(c2ccc(OC)c(OC)c2)C2CCN(CCCN3Cc4nnc(C)n4-c4ccccc43)CC2)cc1OC [Compound 138, 4,5-dihydro-1-methyl-5-[3-[4-[hydroxybis(3,4-dimethoxyphenyl)methyl]piperidin-1-yl]propyl] [1,2,4]triazolo[4,3-a]quinoxaline] |
| 313 | 246 | Cc1nnc2n(CCCN3CCC(c4c[nH]c5ccc(Cl)cc45)CC3)c3ccccc3n12 [Compound 195, 3-methyl-9-[3-[4-(5-chloro-3-indolyl)piperidin-1-yl]propyl]-9H-[1,2,4]triazolo[4,3-a] benzimidazole] |
| 609 | 342 | Cc1nnc2n1-c1ccccc1N(CCCN1CCC(=C(c3ccccc3)c3ccc4ccccc4c3)CC1)C2 [Compound 163, 4,5-dihydro-1-methyl-5-[3-[4-[(2-naphthyl)phenylmethylene]piperidin-1-yl]propyl] [1,2,4]triazolo[4,3,a]quinoxaline] |
| 1550 | 5340 | CCc1nnc2n(CCCN3CCC(c4c[nH]c5ccccc45)CC3)c3ccccc3n12 [Compound 193, 3-ethyl-9-[3-[4-(3-indolyl)piperidin-1-yl]propyl]-9H-[1,2,4]triazolo[4,3-a]benzimidazole fumaric acid salt] |
| 30.2 | 557 | Cc1nnc2n(CCCN3CCC(c4c[nH]c5ccc(F)cc45)CC3)c3ccccc3n12 [Compound 196, 3-methyl-9-[3-[4-(5-fluoro-3-indolyl)piperidin-1-yl]propyl]-9H-[1,2,4]triazolo[4,3-a]benzimidazole] |
| 1700 | 411 | COc1ccccc1C(=C1CCN(CCCN2Cc3nnc(C)n3-c3ccccc32)CC1)c1ccccc1OC [Compound 145, 4,5-dihydro-1-methyl-5-[3-[4-[bis(2-methoxyphenyl)methylene]piperidin-1-yl]propyl] [1,2,4]triazolo[4,3,a]quinoxaline] |
| 1400 | 110 | Cc1nnc2n1-c1ccccc1N(CCCN1CCC(=C(c3ccccc3)c3ccc(C(F)(F)F)cc3)CC1)C2 [Compound 151, 4,5-dihydro-1-methyl-5-[3-[4-[[4-(trifluoromethyl)phenyl]phenylmethylene]piperidin-1-yl]propyl] [1,2,4]triazolo[4,3,a]quinoxaline] |
| 1120 | 55.9 | Cc1nnc2n1-c1ccccc1N(CCCN1CCC(=C(c3ccccc3)c3ccc(N(C)C)cc3)CC1)C2 [Compound 156, 4,5-dihydro-1-methyl-5-[3-[4-[(4-dimethylaminophenyl)phenyimethylene]piperidin-1-yl]propyl] [1,2,4]triazolo[4,3,a]quinoxaline] |
| 1190 | 351 | Cc1nnc2n1-c1ccccc1N(CCCN1CCC(=C(c3ccco3)c3ccco3)CC1)C2 [Compound 161, 4,5-dihydro-1-methyl-5-[3-[4-[bis(2-furyl)methylene]piperidin-1-yl]propyl] [1,2,4]triazolo[4,3,a]quinoxaline] |
